Data on four compounds can be found in article PMC9136103 (The Journal of Biological Chemistry, 2022).

Test [1] deals with T1, human ornithine aminotransferase (hOAT) (Homo sapiens, UniProt P04181).
T1 construct: gene OAT; t-hOAT expressed as MBP fusion, MBP tag removed
T1 sequence (P04181 26-439 limits assumed): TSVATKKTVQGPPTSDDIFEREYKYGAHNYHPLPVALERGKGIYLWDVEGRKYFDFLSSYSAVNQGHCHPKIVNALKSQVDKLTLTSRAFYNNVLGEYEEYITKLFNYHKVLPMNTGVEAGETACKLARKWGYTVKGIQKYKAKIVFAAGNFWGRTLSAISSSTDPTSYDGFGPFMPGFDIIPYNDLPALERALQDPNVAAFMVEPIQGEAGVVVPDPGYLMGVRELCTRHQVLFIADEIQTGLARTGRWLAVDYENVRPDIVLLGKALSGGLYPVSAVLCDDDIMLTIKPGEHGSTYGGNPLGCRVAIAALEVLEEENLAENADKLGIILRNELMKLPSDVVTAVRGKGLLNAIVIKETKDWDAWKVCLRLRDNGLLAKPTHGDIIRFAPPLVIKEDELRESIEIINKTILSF
In words: crystal structure by soaking (~[…] Å); stopped-flow kinetics Kd. Format: biochemical.

Test [2] deals with T1, human ornithine aminotransferase (hOAT). In words: stopped-flow transient-state kinetics, purified enzyme. Format: biochemical. The note with it: read-out: Dissociation constant (Kd).
For test [3] the target is unchanged. The experiment in a line: stopped-flow transient-state kinetics, purified enzyme (Kd not determined). The class given is biochemical.
For test [4] the target is unchanged. The experiment in a line: crystal structure by soaking (~[…] Å); UV-Vis titration Kd. The class given is binding.

Structures are written as SMILES.

In turn, `NCCCCC(=O)O` [AVA, 5-aminovaleric acid] displayed a Kd in test [1] of 735 ± 78 µM.

`NCCC[C@H](N)C(=O)O` [L-Orn, L-ornithine]: the Kd in test [2] is 4700 ± 290 µM. Consider `NCC[C@H](N)C(=O)O` [DABA, L-2,4-diaminobutyric acid], for which the klim/Kd in test [3] is 0.249 ± 0.006 M⁻¹ s⁻¹. As for `NCCCC(=O)O` [GABA, γ-aminobutyric acid], in test [4], the Kd was found to be 110 ± 15 µM.

One may read the Kd as a measure of binding affinity in units of concentration.
